Measured values from patent publication US20080312336A1, “Preventive and/or Therapeutic Agent for Diabetic Vascular Disorder and Respiratory Disorder” (priority 2005, published 2008).

Assays:
[1] = test system: vascular smooth muscles from the STZ-induced diabetic rat model; test: U-46619-induced contraction of isolated thoracic aorta rings from STZ-induced diabetic rats after four weeks of dosing; assay type: in vivo, SD rats; parameters: effective dose for inducing 50% muscle contraction (ED50): unit not given here; settings: for effective dose for inducing 50% muscle contraction (ED50): ED50 of U-46619
Protocol: Eight-week-old male SD rats were divided into four groups, three of which were intraperitoneally administered with 50 mg/kg of streptozotocin (hereafter, also referred to as STZ) to induce diabetes. Of this diabetic model, two groups were used as the test substance-administered groups, and were intraperitoneally administered with 2 mg/kg or 8 mg/kg of “compound 24” synthesized in Preparation Example […] once daily for four weeks continuously. The diabetic model which was not administered with “compound 24” was used as the control group, and rats which were administered with neither STZ nor “compound 24” were used as the non-treated group.
After four weeks from the start of administration, thoracic aorta were isolated to form ring specimens (endothelium (+) specimens) of about 2 mm in length. The vascular endothelia were further removed from these specimens to form endothelium (−) specimens. These specimens were suspended in an organ bath, and the contractile response to cumulative administration of 9,11-dideoxy-9α,11α-methanoepoxy-prosta-5Z,13E-dien-1-oic acid (CAS Registry No.: 56985-40-1, hereafter also referred to as U-46619), which is a thromboxane A2 derivative, was observed. The muscle contractile force was measured with various cumulative concentrations of U-46619 within the range of 10^−9.0 to 10^−6.5 M, to obtain the maximum muscle contractile force (Emax (g/mg tissue)) and the effective dose for inducing 50% muscle contraction (ED50 (M)).

[2] = test system: tracheal smooth muscles from the STZ-induced diabetic rat model; test: Carbachol-induced contraction of isolated tracheal smooth muscle from STZ-induced diabetic rats after four weeks of dosing; assay type: in vivo, SD rats; settings: for effective dose for inducing 50% muscle contraction (ED50): ED50 of carbachol; for effective dose for inducing 50% muscle contraction (ED50) / maximum muscle contractile force (Emax): mean±SD, n=6; for maximum muscle contractile force (Emax): carbachol
Protocol: Eight-week-old male SD rats were divided into four groups, three of which were intraperitoneally administered with 50 mg/kg of streptozotocin (hereafter, also referred to as STZ) to induce diabetes. Of this diabetic model, two groups were used as the test substance-administered groups, and were intraperitoneally administered with 2 mg/kg or 8 mg/kg of the compound, 3-(15-hydroxypentadecyl)-2,4,4-trimethyl-2-cyclohexen-1-one (hereunder, referred to as “compound 24”) synthesized in Preparation Example 24, once daily for four weeks continuously. The diabetic model which was not administered with “compound 24” was used as the control group, and rats administered with neither STZ nor “compound 24” were used as the non-treated group.
After four weeks from the start of administration, tracheae were isolated to prepare specimens (mucosal epithelium (+) specimens). The mucosal epithelia were further removed from these specimens to form mucosal epithelium (−) specimens. These specimens were suspended in an organ bath, and the contractile response to cumulative administration of carbachol (CAS Registry No.: 51-83-2) was observed. The muscle contractile force was measured with various cumulative concentrations of carbachol within the range of 10^−8.0 to 10^−4.5 M, to obtain the maximum muscle contractile force (Emax (g/mg tissue)) and the effective dose for inducing 50% muscle contraction (ED50 (M)).

rat isolated trachea = settings: streptozotocin-induced diabetic rats and normal rats; cited from earlier work
[3] = test system: tracheal muscles isolated from streptozotocin-induced diabetic rats; settings: cited from earlier work
[4] = test system: tracheal specimens contracted with carbachol; settings: cited from earlier work; for relaxation of specimens contracted with carbachol: carbachol 10^−6 mol/l; for response of diabetic rat specimens compared with control animals: specimens six weeks after 65 mg/kg i.v. streptozotocin
[5] = mucosal epithelium (+) specimens, 2 mg/kg i.p. once daily for four weeks
[6] = mucosal epithelium (+) specimens, 8 mg/kg i.p. once daily for four weeks
[7] = mucosal epithelium (−) specimens, 2 mg/kg i.p. once daily for four weeks
[8] = mucosal epithelium (−) specimens, 8 mg/kg i.p. once daily for four weeks

Compound: CC1=C(CCCCCCCCCCCCCCCO)C(C)(C)CCC1=O [Compound 24, 3-(15-hydroxypentadecyl)-2,4,4-trimethyl-2-cyclohexen-1-one]
- effect on Emax increase, endothelium (−) specimens ([1]; 2 mg/kg or 8 mg/kg, compared to the control group): significant inhibition of the Emax increase
- effect on Emax increase, endothelium (+) specimens ([1]; 8 mg/kg, compared to the control group): significant inhibition of the Emax increase
- effective dose for inducing 50% muscle contraction (ED50) ([1]; endothelium (+) specimens, 2 mg/kg i.p. once daily for four weeks, mean±SD, n=6): 8.077 ± 0.037 ×10^−9
- effective dose for inducing 50% muscle contraction (ED50) ([1]; endothelium (+) specimens, 8 mg/kg i.p. once daily for four weeks, mean±SD, n=6): 8.102 ± 0.055 ×10^−9
- effective dose for inducing 50% muscle contraction (ED50) ([1]; endothelium (−) specimens, 2 mg/kg i.p. once daily for four weeks, mean±SD, n=6): 8.149 ± 0.030 ×10^−9
- effective dose for inducing 50% muscle contraction (ED50) ([1]; endothelium (−) specimens, 8 mg/kg i.p. once daily for four weeks, mean±SD, n=6): 8.194 ± 0.114 ×10^−9
- overall effect on vascular smooth muscle contraction ([1]; STZ-induced diabetic rats): vascular smooth muscle contraction-inhibiting effect
- effect on ED50 of U-46619 ([1]; all groups): no difference in ED50 among the groups
- effect on Emax increase of U-46619-induced vascular smooth muscle contraction ([1]; both endothelium (+) and (−) specimens, 2 and 8 mg/kg, vs. control group): inhibited the Emax increase in a dose-dependent manner
- maximum muscle contractile force (Emax) ([1]; endothelium (+) specimens, U-46619, 2 mg/kg i.p. once daily for four weeks, mean±SD, n=6): 0.576 ± 0.082 g/mg tissue
- effect on ED50 decrease of carbachol-induced tracheal smooth muscle contraction ([2]; 2 and 8 mg/kg, vs. control group): inhibited the ED50 decrease in a dose-dependent manner
- effective dose for inducing 50% muscle contraction (ED50) [2, 5]: 12.2 ± 2.3 ×10^−8 M
- effective dose for inducing 50% muscle contraction (ED50) [2, 6]: 17.2 ± 5.3 ×10^−8 M
- effective dose for inducing 50% muscle contraction (ED50) [2, 7]: 11.4 ± 3.1 ×10^−8 M
- effective dose for inducing 50% muscle contraction (ED50) [2, 8]: 13.3 ± 4.2 ×10^−8 M
- overall effect on tracheal smooth muscle contraction ([2]; STZ-induced diabetic rats): tracheal smooth muscle contraction-improving tendency
- effect on Emax increase of carbachol-induced tracheal smooth muscle contraction ([2]; both mucosal epithelium (+) and (−) specimens, 2 and 8 mg/kg, vs. control group): tended to suppress the Emax increase concentration-dependently
- maximum muscle contractile force (Emax) [2, 5]: 0.303 ± 0.047 g/mg tissue
- maximum muscle contractile force (Emax) [2, 6]: 0.292 ± 0.029 g/mg tissue
- maximum muscle contractile force (Emax) [2, 7]: 0.307 ± 0.036 g/mg tissue
- maximum muscle contractile force (Emax) [2, 8]: 0.242 ± 0.019 g/mg tissue

Compound: NCCCC(=O)O [GABA, γ-aminobutyric acid]
- effect on tracheal contraction induced by electrical stimulation (rat isolated trachea): inhibited

Compound: COC(=O)[C@@H](N)CCCNC(=N)N[N+](=O)[O-] [L-NAME, NG-nitro-L-arginine-methylester]
- effect on electrical stimulation-induced contraction ([3]; normal rats and diabetic rats): enhanced the response in normal rats, but not in diabetic rats
- effect on acetylcholine-induced contraction ([3]; tracheal muscles from streptozotocin-induced diabetic rats): not affected

Compound: O=C1C=C(CCCCCCCCCCCO)CCC1 [Preparation Example 2, 3-(11-hydroxyundecyl)-2-cyclohexen-1-one]
- melting point: 34 to 35 °C

Compound: O=C1C=C(CCCCCCCCCCCCO)CCC1 [Preparation Example 3, 3-(12-hydroxydodecyl)-2-cyclohexen-1-one]
- melting point: 35 to 36 °C

Compound: O=C1C=C(CCCCCCCCCCCCCO)CCC1 [Preparation Example 4, 3-(13-hydroxytridecyl)-2-cyclohexen-1-one]
- melting point: 42 to 43 °C

Compound: O=C1C=C(CCCCCCCCCCCCCCO)CCC1 [Preparation Example 5, 3-(14-hydroxytetradecyl)-2-cyclohexen-1-one]
- melting point: 44 to 45 °C

Compound: Nc1cc(-c2ccncc2)c[nH]c1=O [aminone]
- relaxation of specimens contracted with carbachol [4]: concentration-dependent relaxation
- response of diabetic rat specimens compared with control animals [4]: higher response

Compound: COc1ccc(C2CNC(=O)C2)cc1OC1CCCC1 (centres unmarked) [rolipram]
- relaxation of specimens contracted with carbachol [4]: concentration-dependent relaxation
- concentration at which the effect was observed ([4]; control animal specimens): observed at the lowest concentration
- response of diabetic rat specimens compared with control animals [4]: no significant difference

Compound: Cn1c(=O)c2[nH]cnc2n(C)c1=O [theophylline]
- relaxation of specimens contracted with carbachol [4]: concentration-dependent relaxation
- response of diabetic rat specimens compared with control animals [4]: no significant difference
